Laboratory results published in ChEMBL document CHEMBL1131315, “Synthesis and anticonvulsant activity of 2(3H)-benzoxazolone and 2(3H)-benzothiazolone derivatives” (J Med Chem, 1998).
Activity calls are given as the source filed them. The rule behind the calls is not given here.

Tests used:
[1] = target: Sigma non-opioid intracellular receptor 1 (Homo sapiens) (UniProt Q99720); test: Ratio between the Ki(nM)values of sigma-2 and sigma-1; assay type: functional
Sigma 2 receptor = test: Affinity on sigma 2 receptor using [3H]- DTG as radioligand
Mus musculus [2] = test: The compound was tested to inhibit 50% of induced maximal electroshock seizure in mice on ip administration.; assay type: functional
Mus musculus [3] = test: The compound was tested for anticonvulsant activity in Maximal electroshock seizure test for 30 min in mice(ip); active at 30 mg/kg; assay type: functional, organism-based; set-up: dose 30 mg/kg
Rattus norvegicus [4] = test: The compound was tested peroral dose of 40 mg/kg for 2 hours for maximal electroshock test on rats; MES= 1/4; assay type: functional; conditions: route oral
Rattus norvegicus [5] = test: The compound was tested peroral dose of 40 mg/kg for 1 hour for maximal electroshock test on rats; MES= 1/4; assay type: functional; conditions: route oral
Rattus norvegicus [6] = test: The compound was tested peroral dose of 40 mg/kg for 0.5 hours for maximal electroshock test on rats; MES= 3/4; assay type: functional; conditions: route oral
Mus musculus [7] = test: Time of peak effect in mice following i.p. administration.; assay type: functional
Mus musculus [8] = test: The anticonvulsant activity in subcutaneous pentylenetetrazole seizure test (sc Met) for 4 hr in mice; no activity or no toxicity at 300 mg/kg; assay type: functional, organism-based; set-up: dose 300 mg/kg
Rattus norvegicus [9] = test: The compound was tested peroral dose of 40 mg/kg for 0.25 hours for rotarod toxicity; 0/4; assay type: functional; conditions: route oral
Mus musculus [10] = test: Inhibition of s.c. pentylenetetrazole induced seizure in mice following i.p. administration.; assay type: functional
Mus musculus [11] = test: Anticonvulsant activity in subcutaneous pentylenetetrazole seizure test for 30 min in mice; No activity/toxicity at 300 mg/kg.; assay type: functional, organism-based; set-up: dose 300 mg/kg
Rattus norvegicus [12] = test: The compound was tested peroral dose of 40 mg/kg for 0.25 hours for maximal electroshock test on rats; MES= 3/4; assay type: functional; conditions: route oral
[13] = (§1) The compound was tested for the toxic dose on oral administration.; assay type: ADME; conditions: rat
Rattus norvegicus [14] = test: The compound was tested peroral dose of 40 mg/kg for 1 hour for rotarod toxicity; 0/4; assay type: functional; conditions: route oral
[15] = The compound was tested for neurologic toxicity (rotarod) test for 30 min in mice; active at 300 mg/kg; assay type: organism-based; set-up: dose 300 mg/kg; conditions: mouse, in vivo, 0.5 h
Rattus norvegicus [16] = organism: Rattus norvegicus; test: (§2) Protective index value is the ratio between ED50 and TD50; assay type: functional
Rattus norvegicus [17] = test: The compound was tested peroral dose of 40 mg/kg for 4 hours for rotarod toxicity; 0/4; assay type: functional; conditions: route oral
Rattus norvegicus [18] = test: The compound was tested peroral dose of 40 mg/kg for 0.5 hours for rotarod toxicity; 0/4; assay type: functional; conditions: route oral
Rattus norvegicus [19] = test: The compound was tested for the effective oral dose to inhibit 50% of the anticonvulsant in rats; assay type: functional
Rattus norvegicus [20] = test: The compound was tested peroral dose of 40 mg/kg for 2 hours for rotarod toxicity; 0/4; assay type: functional; conditions: route oral
Rattus norvegicus [21] = test: The compound was tested peroral dose of 40 mg/kg for 4 hours for maximal electroshock test on rats; MES= 0/4; assay type: functional; conditions: route oral
Mus musculus [22] = test: The compound was tested for anticonvulsant activity in Maximal electroshock seizure test (MES) for 4 hr in mice(ip); active at 300 mg/kg; assay type: functional, organism-based; set-up: dose 300 mg/kg
[23] = The compound was tested for neurologic toxicity (rotarod) test for 4 hours in mice; no activity or no toxicity at 300 mg/kg; assay type: organism-based; set-up: dose 300 mg/kg; conditions: mouse, in vivo
[24] = The compound was tested for time of peak effect (TPE) in hours for its toxicity in mice on ip administration.; assay type: organism-based; conditions: mouse, in vivo
[25] = The compound was determined for the dose (mg/kg) by rotarod test at the time of peak neurotoxic effect in mice on ip administration.; assay type: ADME, organism-based; conditions: mouse, in vivo
Rattus norvegicus [26] = test: The compound was tested per os dose of 25 mg/kg for 0.5 hours for maximal electroshock test on rats; MES= 3/4; assay type: functional
Rattus norvegicus [27] = test: The compound was tested peroral dose of 25 mg/kg for 4 hours for rotarod toxicity; 0/4; assay type: functional; conditions: route oral
Mus musculus [28] = test: The compound was tested for anticonvulsant activity in subcutaneous pentylenetetrazole seizure test (sc Met) for 4 hr in mice; active at 300 mg/kg; assay type: functional, organism-based; set-up: dose 300 mg/kg
Mus musculus [29] = test: The compound was tested for anticonvulsant activity in Maximal electroshock seizure test (MES) for 4 hr in mice(ip); active at 100 mg/kg; assay type: functional, organism-based; set-up: dose 100 mg/kg
Rattus norvegicus [30] = test: The compound was tested peroral dose of 25 mg/kg for 0.25 hours for rotarod toxicity; 0/4; assay type: functional; conditions: route oral
Rattus norvegicus [31] = test: The compound was tested per os dose of 25 mg/kg for 4 hours for maximal electroshock test on rats; MES= 2/4; assay type: functional
Rattus norvegicus [32] = test: The compound was tested per os dose of 30 mg/kg for 0.25 hours for maximal electroshock test on rats; MES= 0/4; assay type: functional
Rattus norvegicus [33] = test: The compound was tested peroral dose of 25 mg/kg for 2 hours for rotarod toxicity; 0/4; assay type: functional; conditions: route oral
[34] = The compound was tested for neurologic toxicity (rotarod) test for 30 min in mice; active at 100 mg/kg; assay type: organism-based; set-up: dose 100 mg/kg; conditions: mouse, in vivo, 0.5 h
[35] = as §2; assay type: functional
Rattus norvegicus [36] = test: The compound was tested for the effective oral dose to inhibit 50% of the anticonvulsant in rats.(Value in parenthesis indicate 95% confidence limits).; assay type: functional
Rattus norvegicus [37] = test: The compound was tested per os dose of 25 mg/kg for 1 hour for maximal electroshock test on rats; MES= 3/4; assay type: functional
Mus musculus [38] = test: The compound was tested for anticonvulsant activity in subcutaneous pentylenetetrazole seizure test (sc Met) for 30 min in mice; active at 100 mg/kg; assay type: functional, organism-based; set-up: dose 100 mg/kg
Mus musculus [39] = test: Anticonvulsant activity in Maximal electroshock seizure test at 100 mg/kg i.p. in mice.; assay type: functional, organism-based; set-up: dose 100 mg/kg
Rattus norvegicus [40] = test: as §1; assay type: functional
Mus musculus [41] = test: The compound was tested to inhibit 50% of induced maximal electroshock seizure in mice on ip administration; assay type: functional
Rattus norvegicus [42] = test: The compound was tested peroral dose of 25 mg/kg for 0.5 hours for rotarod toxicity; 0/4; assay type: functional; conditions: route oral
Rattus norvegicus [43] = test: The compound was tested per os dose of 25 mg/kg for 2 hours for maximal electroshock test on rats; MES= 2/4; assay type: functional
Rattus norvegicus [44] = test: The compound was tested peroral dose of 25 mg/kg for 1 hour for rotarod toxicity; 0/4; assay type: functional; conditions: route oral
[45] = The compound was tested for neurologic toxicity (rotarod) test for 4 hours in mice; active at 300 mg/kg; assay type: organism-based; set-up: dose 300 mg/kg; conditions: mouse, in vivo
Mus musculus [46] = test: The compound was tested for anticonvulsant activity in Maximal electroshock seizure test for 4 hr in mice(ip); active at 300 mg/kg; assay type: functional, organism-based; set-up: dose 300 mg/kg
[47] = The compound was tested for neurologic toxicity (rotarod) test for 30 min in mice; activity at 100 mg/kg; assay type: organism-based; set-up: dose 100 mg/kg; conditions: mouse, in vivo, 0.5 h
Mus musculus [48] = test: The compound was tested for anticonvulsant activity in subcutaneous pentylenetetrazole seizure test (sc Met) for 4 hr in mice; activity at 300 mg/kg; assay type: functional, organism-based; set-up: dose 300 mg/kg
[49] = The compound was tested for neurologic toxicity (rotarod) test for 4 hr in mice; no activity or toxicity at 300 mg/kg; assay type: organism-based; set-up: dose 300 mg/kg; conditions: mouse, in vivo
Mus musculus [50] = test: The compound was tested for anticonvulsant activity in subcutaneous pentylenetetrazole seizure test (sc Met) for 30 min in mice; activity at 300 mg/kg; assay type: functional, organism-based; set-up: dose 300 mg/kg

Sequence of Sigma non-opioid intracellular receptor 1 (Homo sapiens) (Q99720 whole entry): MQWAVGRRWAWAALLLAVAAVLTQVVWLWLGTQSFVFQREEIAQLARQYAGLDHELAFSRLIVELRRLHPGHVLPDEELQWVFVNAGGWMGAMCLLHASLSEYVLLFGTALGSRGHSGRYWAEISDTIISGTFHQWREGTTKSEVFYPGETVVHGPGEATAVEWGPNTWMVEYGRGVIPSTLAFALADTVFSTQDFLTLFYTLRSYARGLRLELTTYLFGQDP

CCC(=O)c1ccc2c(c1)sc(=O)n2CCN1CCCCC1
Ratio [1]: 10 | Ki (Sigma 2 receptor): 481 nM | ED50 (Mus musculus [2]): 8.7 mg/kg | MES (Mus musculus [3]): active at 30 mg/kg | Protected/Tested (Rattus norvegicus [4]): 1 | Protected/Tested (Rattus norvegicus [5]): 1 | Protected/Tested (Rattus norvegicus [6]): 3 | Activity (Mus musculus [7]): 0.25 h | scMet (Mus musculus [8]): No activity or no toxicity at 300 mg/kg | No. of animals exhibiting toxicity / Number of animals tested (Rattus norvegicus [9]): 0 | ED50 (Mus musculus [10]): > 55 mg/kg | scMet (Mus musculus [11]): No activity or no toxicity at 300 mg/kg | Protected/Tested (Rattus norvegicus [12]): 3 | TD50 [13]: > 110 mg/kg | No. of animals exhibiting toxicity / Number of animals tested (Rattus norvegicus [14]): 0 | Rotarod toxicity [15]: active at 300 mg/kg | PI (Rattus norvegicus [16]): 4 | No. of animals exhibiting toxicity / Number of animals tested (Rattus norvegicus [17]): 0 | No. of animals exhibiting toxicity / Number of animals tested (Rattus norvegicus [18]): 0 | ED50 (Rattus norvegicus [19]): 27.2 mg/kg | No. of animals exhibiting toxicity / Number of animals tested (Rattus norvegicus [20]): 0 | Protected/Tested (Rattus norvegicus [21]): 0 | MES (Mus musculus [22]): active at 30 mg/kg | Rotarod toxicity [23]: active at 300 mg/kg | Toxicity [24]: 0.25 h | TD50 [25]: 46.3 mg/kg

Oc1nc2ccc(Cc3ccccc3)cc2o1
Protected/Tested (Rattus norvegicus [26]): 3 | No. of animals exhibiting toxicity / Number of animals tested (Rattus norvegicus [27]): 0 | Activity (Mus musculus [7]): 0.5 h | scMet (Mus musculus [28]): active at 100 mg/kg | MES (Mus musculus [29]): active at 100 mg/kg | ED50 (Mus musculus [10]): 77.2 mg/kg | No. of animals exhibiting toxicity / Number of animals tested (Rattus norvegicus [30]): 0 | Protected/Tested (Rattus norvegicus [31]): 2 | Protected/Tested (Rattus norvegicus [32]): 0 | No. of animals exhibiting toxicity / Number of animals tested (Rattus norvegicus [33]): 0 | Rotarod toxicity [34]: active at 100 mg/kg | PI [35]: 21.7 | ED50 (Rattus norvegicus [36]): 23.1 mg/kg | Protected/Tested (Rattus norvegicus [37]): 3 | scMet (Mus musculus [38]): active at 100 mg/kg | MES (Mus musculus [39]): active at 100 mg/kg | TD50 (Rattus norvegicus [40]): > 500 mg/kg | ED50 (Mus musculus [41]): 68.3 mg/kg | No. of animals exhibiting toxicity / Number of animals tested (Rattus norvegicus [42]): 0 | Protected/Tested (Rattus norvegicus [43]): 2 | No. of animals exhibiting toxicity / Number of animals tested (Rattus norvegicus [44]): 0 | Rotarod toxicity [45]: active at 100 mg/kg | Toxicity [24]: 1 h | TD50 [25]: 164 mg/kg

CCCCC(=O)c1ccc2c(c1)sc(=O)n2C(C)=O
MES (Mus musculus [46]): active at 300 mg/kg | Rotarod toxicity [47]: activity at 100 mg/kg | scMet (Mus musculus [48]): activity at 300 mg/kg | Rotarod toxicity [49]: activity at 100 mg/kg | MES (Mus musculus [39]): active at 300 mg/kg | scMet (Mus musculus [50]): activity at 300 mg/kg
